Measured values taken from ChEMBL document CHEMBL3882390, “Method for selectively inhibiting ACAT1 in the treatment of neurodegenerative diseases” (2014).
Each block holds one compound with its values, some of them ahead of it. Active and inactive are the calls of the source. No cut-off for these calls is given here.

Experiments:
[1] = target: T1, Sterol O-acyltransferase 1 (Homo sapiens, UniProt P35610); assay: Inhibition of human ACAT1
T1 sequence (P35610 whole entry): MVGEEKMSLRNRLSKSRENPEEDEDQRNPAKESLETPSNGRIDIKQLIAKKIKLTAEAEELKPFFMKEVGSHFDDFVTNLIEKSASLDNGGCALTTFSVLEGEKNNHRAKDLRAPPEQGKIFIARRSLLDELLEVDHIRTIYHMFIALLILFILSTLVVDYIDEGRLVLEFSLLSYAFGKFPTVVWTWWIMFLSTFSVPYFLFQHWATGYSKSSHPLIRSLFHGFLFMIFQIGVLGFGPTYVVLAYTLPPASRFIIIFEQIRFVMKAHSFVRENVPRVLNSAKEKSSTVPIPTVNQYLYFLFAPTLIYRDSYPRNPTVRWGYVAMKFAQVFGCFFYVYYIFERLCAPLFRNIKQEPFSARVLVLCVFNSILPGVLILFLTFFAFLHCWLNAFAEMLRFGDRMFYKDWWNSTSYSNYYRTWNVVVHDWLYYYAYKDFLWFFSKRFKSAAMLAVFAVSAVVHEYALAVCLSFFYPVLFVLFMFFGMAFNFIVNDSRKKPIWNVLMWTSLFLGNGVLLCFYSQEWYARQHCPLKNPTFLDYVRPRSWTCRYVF

[2] = species: Homo sapiens; assay: Selectivity ratio of IC50 for human ACAT2 to IC50 for human ACAT1
[3] = target: T2, Sterol O-acyltransferase 2 (Homo sapiens, UniProt O75908); assay: Inhibition of human ACAT2
T2 sequence (O75908 whole entry): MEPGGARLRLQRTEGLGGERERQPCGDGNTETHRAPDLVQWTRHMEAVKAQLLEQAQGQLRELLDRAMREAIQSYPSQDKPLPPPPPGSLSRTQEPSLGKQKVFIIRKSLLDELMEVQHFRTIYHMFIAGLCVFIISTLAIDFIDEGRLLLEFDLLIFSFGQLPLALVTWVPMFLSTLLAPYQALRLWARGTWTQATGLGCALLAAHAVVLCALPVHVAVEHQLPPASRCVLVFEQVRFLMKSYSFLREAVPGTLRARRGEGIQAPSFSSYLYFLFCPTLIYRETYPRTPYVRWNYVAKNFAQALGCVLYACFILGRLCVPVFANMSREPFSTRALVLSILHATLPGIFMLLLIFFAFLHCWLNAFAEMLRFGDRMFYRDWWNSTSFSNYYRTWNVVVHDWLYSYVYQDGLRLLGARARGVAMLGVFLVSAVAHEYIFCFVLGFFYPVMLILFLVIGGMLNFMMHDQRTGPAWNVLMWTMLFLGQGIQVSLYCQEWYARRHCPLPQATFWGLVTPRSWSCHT

[4] = test system: Mus musculus; assay: Reduction in brain cholesteryl esters in C57BL/6 mouse overexpressing human APP751 with London (V717I) and Swedish ([…]) mutation administered as pellets into bloodstream; assay type: functional
[5] = test system: Mus musculus; assay: Reduction in accumulation of amyloid plaque in C57BL/6 mouse overexpressing human APP751 with London (V717I) and Swedish ([…]) mutation administered as pellets into bloodstream; assay type: functional
[6] = test system: Mus musculus; assay: Reduction in membrane/insoluble amyloid beta level in C57BL/6 mouse overexpressing human APP751 with London (V717I) and Swedish ([…]) mutation administered as pellets into bloodstream; assay type: functional
[7] = test system: Mus musculus; assay: Reduction in soluble amyloid beta42 in brain homogenates of C57BL/6 mouse overexpressing human APP751 with London (V717I) and Swedish ([…]) mutation administered as pellets into bloodstream; assay type: functional
[8] = target: T2, Sterol O-acyltransferase 2; assay: Inhibition of ACAT2 (unknown origin)
[9] = target: T3, Sterol O-acyltransferase 1 (Mus musculus) (UniProt Q61263); assay: Inhibition of ACAT1 in mouse N9 cells assessed as effect on […] by measuring p62 levels in presence of Torin-1 by Western blot analysis; assay type: cell-based
T3 sequence (whole entry): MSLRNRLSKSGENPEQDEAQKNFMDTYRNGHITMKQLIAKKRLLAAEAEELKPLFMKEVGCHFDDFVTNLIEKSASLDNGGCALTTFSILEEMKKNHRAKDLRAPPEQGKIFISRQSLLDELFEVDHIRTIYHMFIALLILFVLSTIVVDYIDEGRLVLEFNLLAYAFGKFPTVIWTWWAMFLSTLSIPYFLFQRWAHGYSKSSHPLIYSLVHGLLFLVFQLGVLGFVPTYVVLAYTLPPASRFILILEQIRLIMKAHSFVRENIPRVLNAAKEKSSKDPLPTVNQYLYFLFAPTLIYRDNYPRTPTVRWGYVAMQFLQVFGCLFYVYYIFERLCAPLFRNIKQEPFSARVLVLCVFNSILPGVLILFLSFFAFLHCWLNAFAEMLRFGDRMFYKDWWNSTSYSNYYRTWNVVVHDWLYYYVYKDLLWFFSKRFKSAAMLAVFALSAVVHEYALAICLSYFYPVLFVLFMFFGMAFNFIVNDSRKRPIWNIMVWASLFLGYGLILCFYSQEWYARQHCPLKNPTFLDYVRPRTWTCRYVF

[10] = target: T3, Sterol O-acyltransferase 1 (Mus musculus); assay: Inhibition of ACAT1 in mouse N9 cells assessed as increase in Cys-amyloid beta 1 to 42 uptake pretreated for 8 hrs followed by Cys-amyloid beta 1 to 42 addition measured after 3 hrs by flow cytometry relative to control; assay type: cell-based; set-up: scale not given: the % may be the effect or the level left
[11] = target: T3, Sterol O-acyltransferase 1 (Mus musculus); assay: Inhibition of ACAT1 in mouse N9 cells assessed as effect on autophagosome formation by measuring LC3-2 levels in presence of squalene synthase inhibitor CP-340868; assay type: cell-based
[12] = target: T3, Sterol O-acyltransferase 1 (Mus musculus); assay: Inhibition of ACAT1 in TFEB knock-down mouse N9 cells assessed as autophagosome formation by measuring LC3-2 levels; assay type: cell-based
[13] = target: T3, Sterol O-acyltransferase 1 (Mus musculus); assay: Inhibition of ACAT1 in mouse N9 cells assessed as reduction in oligomeric amyloid beta 1 to 42 pretreated for 24 hrs followed by oligomeric amyloid beta 1 to 42 addition measured after 12 hrs by Western blot analysis relative to control; assay type: cell-based; settings: concentration not given here
[14] = target: T3, Sterol O-acyltransferase 1 (Mus musculus); assay: Inhibition of ACAT1 in mouse N9 cells assessed as increase in autophagic flux by measuring LC3-2 levels in presence of Torin-1 by Western blot analysis; assay type: cell-based
[15] = target: T3, Sterol O-acyltransferase 1 (Mus musculus); assay: Inhibition of ACAT1 in mouse N9 cells assessed as increase in late endosomes/lysosomes volume measured after 8 hrs by Lyso tracker staining based flow cytometry relative to control; assay type: cell-based; settings: concentration not given here
[16] = target: T3, Sterol O-acyltransferase 1 (Mus musculus); assay: Inhibition of ACAT1 in mouse N9 cells assessed as increase in lysosome biogenesis by measuring Lyso tracker fluorescence measured after 8 hrs by Lyso tracker staining based flow cytometry; assay type: cell-based
[17] = target: T3, Sterol O-acyltransferase 1 (Mus musculus); assay: Inhibition of ACAT1 in mouse N9 cells at 0.1 uM measured after 8 hrs by Lyso tracker staining based flow cytometry relative to control; assay type: cell-based
[18] = target: T3, Sterol O-acyltransferase 1 (Mus musculus); assay: Inhibition of ACAT1 in mouse N9 cells assessed as increase in TFEB target genes mRNA expression measured after 8 hrs by qPCR analysis; assay type: cell-based
[19] = target: T3, Sterol O-acyltransferase 1 (Mus musculus); assay: Inhibition of ACAT1 in wild type mouse microglia assessed as increase in clearance of oligomeric amyloid beta at 1 uM pretreated for 24 hrs followed by oligomeric amyloid beta addition measured after 18 hrs by western blot analysis relative to control
[20] = target: T3, Sterol O-acyltransferase 1 (Mus musculus); assay: Inhibition of ACAT1 in mouse N9 cells assessed as induction of autophagy by measuring LC3-2 at 0.1 uM by Western blot analysis; assay type: cell-based
[21] = target: T3, Sterol O-acyltransferase 1 (Mus musculus); assay: Inhibition of ACAT1 in mouse N9 cells; assay type: cell-based
[22] = target: T4, Sterol O-acyltransferase 2 (Chlorocebus aethiops, UniProt O77759); assay: Inhibition of African green monkey ACAT2 expressed in mouse AC29 cells assessed as reduction in esterification of NBD-cholesterol preincubated for 20 mins followed by NBD-cholesterol addition measured after 6 hrs by high-performance TLC method; assay type: cell-based
T4 sequence (O77759 whole entry): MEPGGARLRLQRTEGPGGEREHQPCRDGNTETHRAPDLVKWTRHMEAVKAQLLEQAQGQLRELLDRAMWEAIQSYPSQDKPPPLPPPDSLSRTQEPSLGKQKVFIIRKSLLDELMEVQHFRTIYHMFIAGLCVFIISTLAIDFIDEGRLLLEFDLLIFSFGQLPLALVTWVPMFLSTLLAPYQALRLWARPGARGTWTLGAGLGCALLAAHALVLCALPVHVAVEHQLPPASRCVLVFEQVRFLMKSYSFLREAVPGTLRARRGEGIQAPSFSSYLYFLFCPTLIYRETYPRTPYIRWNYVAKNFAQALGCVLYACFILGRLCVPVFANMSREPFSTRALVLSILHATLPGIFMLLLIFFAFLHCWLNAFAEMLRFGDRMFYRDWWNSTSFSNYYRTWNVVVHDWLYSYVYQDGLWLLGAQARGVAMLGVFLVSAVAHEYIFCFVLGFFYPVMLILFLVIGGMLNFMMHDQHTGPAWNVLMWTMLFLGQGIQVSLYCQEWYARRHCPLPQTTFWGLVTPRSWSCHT

[23] = target: T5, Sterol O-acyltransferase 2 (Homo sapiens) (UniProt O75908); assay: Inhibition of human ACAT2 at 1 mM
T5 sequence (whole entry): T2 sequence (O75908 whole entry)

[24] = target: T4, Sterol O-acyltransferase 2; assay: Inhibition of African green monkey ACAT2 expressed in CHO cells assessed as reduction in [14C]CE formation using [1-14C]oleoyl-CoA measured after 6 hrs by TLC method; assay type: cell-based

Structure (SMILES): CCCCCCCC[C@H](SCCCCCC)C(=O)Nc1c(SC)cc(C)nc1SC
- inhibition (INH) [4]: 86%
- inhibition (INH) [5]: 88 - 99%
- inhibition (INH) [6]: 83 - 96%
- inhibition (INH) [7]: 34%

Structure (SMILES): COc1ccc([C@@H](O)[C@@H](C)Oc2ccc([C@H]3O[C@H](c4ccc(O[C@H](C)[C@H](O)c5ccc6c(c5)OCO6)c(OC)c4)[C@H](C)[C@H]3C)cc2OC)cc1OC
- inhibition [23]: 32%

Structure (SMILES): CCCC[C@H](C)[C@@H]1CC(=O)N[C@@H](Cc2ccccc2)C(=O)N[C@@H](C)C(=O)N[C@H](CC(C)C)C(=O)O1 [BEAUVERIOLIDE I]
- IC50 [24]: 20 µM

Results, then the compound that gave them:

- IC50 [1]: 44 µM
- Ratio IC50 [2]: 4
- IC50 [3]: 170 µM
Structure (SMILES): CCOC(=O)OC(=O)OCC [DIETHYL PYROCARBONATE]

- IC50 [8]: 0.11 µM
Structure (SMILES): CCCCCCCCCCCCS[C@H](C(=O)Nc1cc(C)c(O)c(C)c1C)c1ccccc1 [EFLUCIMIBE]

- inhibition [9]: Active
- Activity [10]: 23%
- inhibition [11]: Active
- inhibition [12]: Active
- inhibition [13]: 58%
- inhibition [14]: Active
- inhibition [15]: 27%
- inhibition [16]: Active
- inhibition [17]: 80%
- inhibition [18]: Active
- inhibition [19]: < 65%
- inhibition [20]: Active
- inhibition [21]: Dose-dependent effect
Structure (SMILES): CSc1cc(C)nc(SC)c1NC(=O)CN1CCN(CCSc2nc3ccccc3[nH]2)CC1

- IC50 [22]: 0.53 µM
Structure (SMILES): CC(C)c1cccc(C(C)C)c1NC(=O)CC(=O)C(Cc1ccccc1)Cc1ccc(OC(=O)CCCCCCN2CCCCCC2=O)cc1 (centres undefined)
